“Also recorded” adds a separate entry of the source. Read-outs that look alike come from different tables or passages of the source.
What was measured:
[1] = cited from earlier work
[2] = test system: Nb2-SFJCD1 rat lymphoma cells; assay: Culture growth inhibition assay in Nb2-SFJCD1 cultures; type: cell-based; conditions: for IC50: read-out: IC50 (mM) Average ± S.D.; for growth-inhibitory effect in the presence of elevated cystine: cystine at ca. 3-fold elevated levels in the culture medium, Fig. 5
Procedure: Solubilization of salicylhydroxamic acid and sulfasalazine involved use of 0.1 N NaOH and adjustment of the pH to 7.5-7.7 using 1 N HCl, which was added slowly to the solution swirled by a magnetic stirrer. […] All drugs were obtained from Sigma-Aldrich Canada Ltd., Oakville, ON, Canada. Drug solutions and vehicles (controls) were prepared and assayed under subdued light conditions.
(§1) Nb2 lymphoma is of a pre-T cell origin. The parental line (Nb2 U17) is non-metastatic as subcutaneous implants whereas subline Nb2-SFJCD1 is highly metastatic. Nb2-SFJCD1 cultures (doubling time = 12 - 13 hr) were maintained in Fischer's medium (Sigma-Aldrich), supplemented with 10.0 % horse gelding serum (lactogen-deficient; one batch, ICN Biomedicals, Inc., Auroro, OH), penicillin (50 U/ml) and streptomycin (50 µg/ml). In this medium the cells grow as clumps which can be readily dispersed. Nb2 lymphoma cell lines are used by a number of laboratories; the Nb2-11 subline, is available from the European Collection of Animal Cell Cultures (ECACC) in Salisbury, U.K. The Nb2-U17 and Nb2-SJFCD1 cell lines are available from Dr. Peter W. Gout, B.C. Cancer Research Centre, Vancouver, B.C., Canada.
Nb2-SFTCD1 cells from log phase cultures were centrifaged (3.5 min at 350xg) and gently resuspended in fresh Fisher's medium containing 10% horse gelding serum. Aliquots (1.80 ml) were distributed in 12-well tissue culture plates (Linbro, Flow Laboratories, Mississauga, ON, Canada) and preincubated for 3 - 5 hours at 37°C in a water-saturated 5% CO2/air atmosphere. Solutions of the drugs (200 µl portions) were then added to the cultures for a 45 hour incubation (Cin = 1.0x10^5 cells/ml). Cell populations were determined using an electronic counter (Coulter Electronics, Hialeah, FL).

[3] = test system: MCF-7 cells; assay: Cell proliferation of MCF-7 breast carcinoma cells; type: cell-based, human; conditions: 10 mM
Excerpt: (§2) The effect of sulfasalazine on cell proliferation was subsequently assessed. […] Thus, the xc^- transporter is a target for the anti-cancer actions of sulfasalazine in human breast carcinoma.

[4] = test system: Nb2-U17 tumor transplant; assay: Assay of tumor growth inhibition in rats; type: in vivo, Nb rats; conditions: b.i.d., 7-day period
Procedure: (§3) A colony of Nb rats is maintained in the British Columbia Cancer Research Centre Vancouver, B.C., Canada. Approximately equal portions of minced Nb2-U17 tumor tissue, developed subcutaneously in a rat following injection of cultured Nb2-U17 cells, were injected by trocar subcutaneously in the nape of the neck of groups of male Nb rats (one injection per rat), that had been lightly anesthetized with isoflurane (Abbott Laboratories Ltd., Montreal, Canada). […] 2 % CMC or saline were used for controls. Drug preparation and administration were carried out under subdued light conditions. Food and water were provided ad libitum. Tumor size, body weight and general health of the rats were monitored twice a day. Tumor size was measured using calipers and expressed in grams using the formula: π/6 x length x width x height in cm. […] On necropsy the animals were examined for evidence of metastatic spread with particular attention to tissues such as kidneys, liver and spleen, the target tissues of metastatic Nb2 lymphoma cells. Tissue sections were taken for histologic analysis. Non-tumor-bearing animals were used to establish maximally tolerated dosages.

[5] = test system: MDA-MB-231 cells; assay: Cell proliferation of MDA-MB-231 breast carcinoma cells; type: cell-based, human
Excerpt: as §2

[6] = test system: DoHH2 cells; assay: Culture growth inhibition assay using DoHH2 cells; type: cell-based, human; conditions: 1.5% FBS, 0.05 mM, at hr 45, Fig. 4
Procedure: as §1, with “Canada. DoHH2 cell suspension cultures (doubling time ca. 20 hours) were maintained in RPMI-1640 medium (Stem Cell Technology, Vancouver, B.C., Canada) containing fetal bovine serum (5%), horse serum (5%) and antibiotics.” for “Canada.”
Assays using DoHH2 cells were similarly performed, using their maintenance medium; Cin = ca. 1.5x10^5 cells/ml (see: Kluin-Nelemans, H.C. et al. (1991) Leukemia 5:221.)

[7] = rat, in vivo
Procedure: as §3

[8] = as reported in the literature for patients/controls undergoing treatment with the drugs
[9] = Rattus norvegicus, 45 h at 37°C, Fischer's medium containing 10.0% horse gelding serum

For `Nc1ccc(O)c(C(=O)O)c1` [5-aminosalicylic acid], the “Therapeutic drug levels in plasma” value [1, 8] is given as “ca. 0.01 mM”.
In the case of `CC(C)Cc1ccc(C(C)C(=O)O)cc1` (stereo not drawn) [Ibuprofen], the “Therapeutic drug levels in plasma” value ([1]; in vivo) is listed as 0.05 to 0.1 mM, the inhibition at 100 µM ([2]; Rattus norvegicus, 0.1 mM (therapeutic concentration), Fig. 1, read-out: inhibited the growth of the Nb2 cell cultures) is listed as 5 to 10% and the IC50 [2, 9] is listed as 0.43 ± 0.01 mM.
In the case of `N[C@@H](CCC(=O)O)C(=O)[O-].[Na+]` [Monosodium glutamate], the inhibition of proliferation [3] is reported as “to an extent similar to that observed for sulfasalazine” and the “inhibition of proliferation with addition of 2-ME” value ([3]; 2-ME added to the cultures) is reported as “completely negated this effect”.
In the case of `CN1C(C(=O)Nc2ccccn2)=C(O)c2ccccc2S1(=O)=O` [Piroxicam], the “Therapeutic drug levels in plasma” value ([1]; in vivo) is listed as 0.015 to 0.03 mM, the inhibition at 30 µM ([2]; Rattus norvegicus, 0.03 mM (therapeutic concentration), Fig. 1, read-out: inhibited the growth of the Nb2 cell cultures) is listed as 5 to 10% and the IC50 [2, 9] is listed as 0.3 ± 0.02 mM.
With `NC(=O)c1ccccc1O` [Salicylamide] the IC50 [2, 9] was 1.34 ± 0.13 mM.
For `O=C([O-])c1ccccc1O.[Na+]` [Salicylate, sodium, sodium salicylate], the tumor growth inhibition ([4]; i.p. 150 mg/kg body wt, 150 mg/kg) is given as “did not inhibit tumor growth; also recorded: had no effect”, the “Therapeutic drug levels in plasma” value [1, 8] is given as 1 to 3 mM and the IC50 ([2]; Rattus norvegicus, 45 h) is given as 1.82 ± 0.12 mM. The inhibition at 3000 µM ([2]; Rattus norvegicus, read-out: inhibited the growth of the Nb2 cell cultures) was about 70% and the “growth-inhibitory effect in the presence of elevated cystine” value [2] was “only marginally affected”.
For `O=C(O)c1cc(/N=N/c2ccc(S(=O)(=O)Nc3ccccn3)cc2)ccc1O` [Sulfasalazine], the lymphoma growth-inhibitory effect ([4]; oral administration, 500 mg/kg body wt) was “only minor lymphoma growth-inhibitory effect”, the “antagonism of the inhibitory actions by 2-ME” value ([5]; 2-ME (60µM)) was “completely antagonized” and the IC50 ([5]; Homo sapiens, MDA-MB-231) was 300 ± 5 µM. The cell lysis [6] was “extensive cell lysis”, the “side effects (general health and appearance)” value [7] was “no major side effects” and the minor side effect ([7]; ip) was “thickening of tissue at the site of the injections”. The “Therapeutic drug levels in plasma” value [1, 8] was 0.08 to 0.2 mM, the growth arrest ([2]; 0.15 mM, 45 hour experiment) was “only partially arrested growth” and the IC50 [2, 9] was about 0.17 mM. For the same compound, the “growth-inhibitory effect in the presence of elevated cystine” value [2] was “substantially reduced” and the growth-inhibitory activity ([2]; range 0.1 - 0.3 mM, Fig. 2) was “highly potent”.
For `Nc1ccc(S(=O)(=O)Nc2ccccn2)cc1` [sulfapyridine], the “Therapeutic drug levels in plasma” value [1, 8] is given as 0.08 to 0.2 mM.

Source: patent publication EP1278521B1, “N-HETEROCYCLIC SUBSTITUTED SALICYLATES FOR THE TREATMENT OF CANCER” (priority 2000, dated 2001)
